Reference: patent US7449454B2, “Metallotexaphyrin derivatives” (Pharmacyclics, Inc., priority 2000, dated 2008)

Experiments:
[1] = Extinction coefficient by UV/Vis; assay type: physicochemical; settings: for ε(methanol): in M-1·cm-1 (unit assumed)
Description: Four samples of increasing amounts of a test compound of Formula I (between 3 mg and 11 mg) were put into separate 10 ml flasks and dissolved in methanol. Each of the solutions and one control sample (containing no test compound) were diluted to volume. The absorption at 475 nm was measured by UV/Vis and recorded for each of the five samples. The extinction coefficient for each sample was determined accordingly.
The extinction coefficient for the test compound at 475 nm was determined by averaging the extinction coefficient for the four samples (not including the control). The above steps were repeated (at 733 nm) to determine the extinction coefficient for the test compound at 733 nm. When determining the extinction coefficient of aggregated test compounds LuTex acetate, cholate or deoxycholate, the extinction coefficient at 733 nm is not measured. Instead, the above steps were repeated substituting 4% acetic acid/methanol for methanol.

[2] = Solution pH in deionized water; assay type: physicochemical; settings: H2O
Description: The test compound was mixed in 5 ml of deionized water to achieve a 2 mg/ml solution. The solution pH was measured using a Beckman pH meter.

[3] = Octanol/water partition coefficient; assay type: physicochemical
Description: The partition coefficient was measured using an adaptation of the procedure outlined in Drug Stability: Principles and Practices (AAI, Inc. Wilmington, N.C., 2nd Edition, 1995). A 10 ml solution of 10 mg/ml of the test compound of Formula I dissolved in deionized water was placed in a separator funnel, to which 10 ml of 1-octanol was added. The combined mixture was stirred. The mixture was left to separate and the absorption of the compound was measured in the water phase and in the octanol phase by UV/Vis at 413-417 nm (413-417 offers the closest match in absorbance between the octanol phase and the water phase. The octanol water partition coefficient is determined by the formula: […]
The above steps were then repeated using a 10 ml sample of test compound at 1.0 mg/ml.

[4] = Plasma concentration after injection in atherosclerotic rabbits; assay type: in vivo, NZW rabbits; settings: rabbit, 10 mg/kg injected, 2 mg/ml solution
Description: Plasma pK and biodistribution of the different test compounds of Formula I in plaque are determined and compared with the plasma pK and biodistribution in normal arterial walls. Sixteen normal male NZW rabbits, each weighing 3.5-4.0 kg are obtained from R&R Rabbitry in Stanwood Oreg. Each rabbit is given an intramuscular injection of Ketamine/Rompun [(8.4 mg/kg)/(1.2 mg/kg)] and allowed to relax until the anesthetic takes effect. To induce deep anesthesia, the rabbits then receive a second dose of Ketamine/Rompun [(8.4 mg/kg)/1.2 mg/kg)] via intravenous injection. To expose the abdomen and back legs, each rabbit is shaved with a size 40 blade. Their eyes are coated with lubricant eye ointment (Artificial Tears).
A femoral artery cut down is performed on the right side of the rabbits. Lidocaine (2%) is injected subcutaneously around the femoral artery as a local anesthetic and also applied topically to prevent spasms. A No.4 French Fogarty balloon embolectomy catheter is inserted retrograde 15 cm into the abdominal aorta. The balloon is inflated with 0.5-0.75 ml of hypaque contrast and pulled 3.5 cm distally toward the femoral artery six times. The catheter is then withdrawn. […]
A 3 ml blood sample is taken from each of the rabbits and the cholesterol level for each sample is determined and recorded. […]
The clearance rate of the test compound is also particularly important to measure. Plasma samples from each of the test compounds (see part A of this example) are mixed with 10 mM Triton X-100 and the fluorescence optimum is measured at 745 nm by scanning between 700-800 nm using a 450 nm excitation. A standard curve is run to insure that the fluorescence of the samples lies on the linear portion of the curve. The entire fluorescence emission spectrum is observed by using both a monochromator and CCD array. This permits differentiating between the peak at 745 nm and any possible extraneous fluorescence that might have a different optimum, and tail off into the 745 nm region. Test compound accumulation is expressed as μg drug/g tissue (wet weight) or μg/ml in plasma.

[5] = Solubility in H2O (deionized water)
Description: This mixture was then shaken, and 1.5 ml of the supernatant removed by a syringe equipped with a 0.22 μm filter unit. After discarding the first 1 mL of the filtrate, the remaining 0.5 mL was collected and saved. 0.1 ml of the saved filtrate was added to a 25 ml flask and diluted with 4% Acetic Acid/Methanol solution to volume. The absorption of the diluted solution at 475 nm was measured by UVN is at 1, 4, and 24 hours after the solutions had been shaken as described above.

The lutetium (III) complex of: 4,5-diethyl-10,23-dimethyl-9,24-bis(3-hydroxypropyl)-16,17-bis[2-[2-(2-methoxyethoxy)ethoxy]ethoxy]pentaazapentacyclo[20.2.1.1^3,6.1^8,11.0^14,19]-heptacosa-1,3,5,7,9,11(27),12,14,16,18,20,22(25), 23-tridecaene bis benzoate [LuTex bis benzoate]
ε(methanol) ([1]; at 475 nm): 122800
ε(methanol) ([1]; at 733 nm): 40600
pH [2]: 6.1
K (octanol/water) ([3]; 0.05 mg/ml): 0.34
pH(octanol/water) ([3]; 0.05 mg/ml): 6.6

The lutetium (III) complex of: 4,5-diethyl-10,23-dimethyl-9,24-bis(3-hydroxypropyl)-16,17-bis[2-[2-(2-methoxyethoxy)ethoxy]ethoxy]pentaazapentacyclo[20.2.1.1^3,6.1^8,11.0^14,19]-heptacosa-1,3,5,7,9,11(27),12,14,16,18,20,22(25), 23-tridecaene bis formate [LuTex bis formate]
ε(methanol) ([1]; at 475 nm): 126400
ε(methanol) ([1]; at 733 nm): 41700
pH [2]: 5.5
K (octanol/water) ([3]; 0.05 mg/ml): 0.02
pH(octanol/water) ([3]; 0.05 mg/ml): 5.6
K (octanol/water) ([3]; 0.5 mg/ml): 0.02
pH(octanol/water) ([3]; 0.5 mg/ml): 5.1
Plasma Concentration ([4]; 1 Hour post injection): 3900 ng/mL
Plasma Concentration ([4]; 5 Hours post injection): 500 ng/mL
Plasma Concentration ([4]; 24 Hours post injection): 300 ng/mL
solubility in deionized water [5]: 2 to 2.5 mg/mL

lutetium complex of 4,5-diethyl-10,23-dimethyl-9,24-bis(3-hydroxypropyl)-16,17-bis[2-[2-(2-methoxyethoxy)ethoxy]ethoxy]pentaazapentacyclo-[20.2.1.1^3,6.1^8,11.0^14,19]heptacosa-1,3,5,7,9,11(27),12,14,16,18,20,22(25),23-tridecaene bis gluconate [LuTex bis gluconate]
solubility in deionized water [5]: 50 to 80 mg/mL

The lutetium (III) complex of: 4,5-diethyl-10,23-dimethyl-9,24-bis(3-hydroxypropyl)-16,17-bis[2-[2-(2-methoxyethoxy)ethoxy]ethoxy]pentaazapentacyclo[20.2.1.1^3,6.1^8,11.0^14,19]-heptacosa-1,3,5,7,9,11 (27),12,14,16,18,20,22(25),23-tridecaene bis deoxycholate [LuTex bis deoxycholate]
ε(4% acetate/methanol) ([1]; 4% acetate/methanol, wavelength not given): 135000 M⁻¹ cm⁻¹
ε(methanol) ([1]; wavelength not printed (aggregated compound, 733 nm not measured)): 136000
